According to PMC6394990, “Detailed characterization of the solution kinetics and thermodynamics of biotin, biocytin and HABA binding to avidin and streptavidin” (PLoS ONE, 2019):
“And” between values parts separate entries of the source, which are not always exact repeats. Identical values can stand only once.

Columns and labels:
[1] = target: T1, streptavidin (SAV) (Streptomyces avidinii, UniProt P22629); assay: Dissociation (displacement/replacement) of dye-labeled biotin complexes by unlabeled B7; assay type: binding; settings: for half-time of displacement: SAV-BcO AB1
T1 construct: purchased Sigma Aldrich (St. Louis, MO)
T1 sequence (P22629 25-183): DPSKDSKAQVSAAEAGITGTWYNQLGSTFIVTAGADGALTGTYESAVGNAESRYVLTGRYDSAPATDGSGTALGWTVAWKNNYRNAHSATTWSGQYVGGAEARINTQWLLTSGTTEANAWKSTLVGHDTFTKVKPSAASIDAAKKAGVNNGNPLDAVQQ
Experimental: Biotin dissociation was determined using labelled biotin (BcO and BFl) displaced by unlabeled biotin using minimally occupied and fully occupied binding sites. In the minimally occupied measurements, SAV is prepared with less than one site on average occupied by labelled biotin (AB1), using 800 nM SAV and 40 nM of BcO or BFl. For saturated SAV-labelled biotin (AB4) complexes, equimolar binding sites and labelled ligand were prepared, 40 nM SAV and 40 nM of BcO or BFl. The AB1 complexes were challenged in displacement experiments with several concentrations of unlabeled B7 (1500 nM, 1750 nM, 2000 nM and 2500 nM) at 20 ± 0.1°C. In AB1, SAV had 760 nM in open sites, therefore the total challenging B7 concentrations were 740 nM, 990 nM, 1240 nM and 1740 nM, respectively. […] The 40 nM AB4 complexes were challenged with unlabeled B7 concentrations of 400 nM (10X) and 1600 nM (40X) at 20 ± 0.1°C. The dissociation reactions of AV complexes were carried out with a preformed complex of 20 nM BFl or BcO and 260 nM AV for a filling model of AB1 and challenged with unlabeled B7 at 2,000 nM.
The rss measurements were collected using the Giblin-Parkhurst modification of the Wampler-Desa method as described previously. The fluorescence signal was detected in a model A-1010 Alphascan fluorimeter (Photon Technologies, Inc., Birmingham, NJ) equipped with an R928 PMT (Hamamatsu, Bridgewater, NJ). The excitation was provided by an Ar^+ ion laser (Coherent Innova 70–4 Argon, Santa Clara, CA) at 488 nm and 5–10 mW of power incident on the sample. A photoelastic modulator (PEM-80; HINDS International, Inc., Portland, OR) was placed between the laser source and the sample compartment with a retardation level of 1.22π, and the PEM stress axis orientated 45° with respect to the E vector of the laser beam. Two signals were acquired with the PEM alternating between “on” and “off” positions for 10 seconds and the data fitted to a least squared straight line to minimize noise. A minimum of six of these independent measurements were averaged to acquire the rss values. The fluorimeter G factor was determined using a film polarizer and analyzer with an excitation at 488 nm provided by a xenon arc lamp (model A1010, Photon Technologies Inc, Princeton, NJ). The dissociation reactions of dye-labeled B7 and protein complexes were monitored by fluorescence changes and were also collected in the fluorimeter described above.
The dissociation reactions were followed by fluorescence changes, F¯(t) , in the fluorimeter and laser setup described above and tuned to 488 nm under discontinuous excitation to prevent photobleaching distortion. The signal was best fitted to the following dissociation model (Eq 10), in which the dye labeled complex dissociates into the labeled B7 probe (BFl or BcO) and the respective protein (AV or SAV).

[2] = target: T1, streptavidin (SAV); assay: Fluorescence lifetimes, SAV complex; assay type: physicochemical; settings: for t (1), fluorescence lifetime: complex with SAV, t for BFl and BcO, average lifetime for B-DNAds*Fl
Experimental: (§1) The lifetimes (τ), steady state anisotropies (rss), time-resolved anisotropies (rt) and quantum yields (QY) of the complexes (at 20 ± 0.1°C and pH 8) were collected with a dye-labeled B7 probe concentration of 20–40 nM and 1040–2080 nM of either protein (AV or SAV) to ensure that only one binding site in the tetramer was filled with a ligand (AB1 filling model).
The lifetimes were collected in a FluoTime100 fluorescence spectrometer (PicoQuant, GmbH, Berlin, Germany) with the excitation light source provided by a picosecond pulsed diode laser (PicoQuant, GmbH, Berlin, Germany) at 470 nm and 20 MHz. The emission was collected at 520 nm through a non-fluorescing 520 nm interference filter (Oriel Corp., Stratford, CT) followed by a liquid filter of 1cm path length containing 24 mM acetate buffered dichromate at pH 4, between the sample and detector to eliminate traces of excitation light. The fluorescence decays were fit by a nonlinear least-squares minimization based on the Marquardt algorithm embedded in the Fluofit software (PicoQuant GmbH). Twenty-eight decays were collected per sample, the decays were grouped in four sets, consisting of seven sample decays and one Instrument Response Function, IRF, for deconvolution proposes. The decay sets were globally fitted to mono- or bi-exponential decay models that were discriminated using the statistical parameter χ^2. The rt data were acquired with the fluorimeter described above equipped with a polarizer and an analyzer to acquire the parallel VV(t) and perpendicular VH(t) decays. The PicoQuant G factor was calculated according to: G = ∫HV(t)dt/∫HH(t)dt, where HV(t) and HH(t) were the decays collected with the emission polarizer selecting vertical and horizontal E-vector passing orientations, respectively, and the excitation polarizer set at horizontally position.

[3] = target: T1, streptavidin (SAV); assay: Quantum yields (QY), SAV complex; assay type: physicochemical; settings: for dQY-SAV: fractional change of QY, SAV complex against dye
Experimental: as §1
The QY values were obtained by using a reference fluorophore of known quantum yield and were calculated according to Parker and Rees, where the reference dye was fluorescein in 0.1N sodium hydroxide solution [46]. The emission fluorescence scans were collected from 480 nm to 700 nm with the excitation light set at 460 nm provided by the xenon arc lamp described above. These measurements were made on the AB1 complexes at high protein concentration.

[4] = Intrinsic lifetime, dynamic quantum yield and fraction of non-statically quenched molecules, unbound probe; assay type: physicochemical; settings: for t° (2), intrinsic lifetime of the fluorescence dye: in ns; for 1-S (4) = QY/F, fraction of non-statically quenched molecules / F (3) = Sat/t° / S: unbound dye
[5] = target: T2, avidin (AV) (Gallus gallus, UniProt P02701); assay: Intrinsic lifetime, dynamic quantum yield and fraction of non-statically quenched molecules, AV complex; assay type: physicochemical; settings: for Dynamic Quantum Yield Φ / Fraction of Non-Statically Quenched Dye 1-S / Natural Lifetime τ°: AV complex (AB1); for 1-S (4) = QY/F, fraction of non-statically quenched molecules / F (3) = Sat/t° / S / t° (2), intrinsic lifetime of the fluorescence dye: complex with AV; for t° (2), intrinsic lifetime of the fluorescence dye: in ns
T2 construct: purchased Calbiochem (La Jolla, CA)
T2 sequence (P02701 25-152): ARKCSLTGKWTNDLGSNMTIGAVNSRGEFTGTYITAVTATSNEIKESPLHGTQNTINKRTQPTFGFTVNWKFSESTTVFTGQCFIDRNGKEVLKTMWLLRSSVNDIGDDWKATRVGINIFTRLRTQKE

[6] = target: T1, streptavidin (SAV); assay: Intrinsic lifetime, dynamic quantum yield and fraction of non-statically quenched molecules, SAV complex; assay type: physicochemical; settings: for 1-S (4) = QY/F, fraction of non-statically quenched molecules / F (3) = Sat/t° / S / t° (2), intrinsic lifetime of the fluorescence dye: complex with SAV
[7] = SAV complex, di-ionic fluorescein species
[8] = SAV complex, mono-ionic fluorescein species

SMILES	t (1), fluorescence lifetime [2]	QY ([3]; complex with SAV)	dQY-SAV [3]	t° (2), intrinsic lifetime of the fluorescence dye [4]	1-S (4) = QY/F, fraction of non-statically quenched molecules [4]	F (3) = Sat/t° [4]	S [4]	Dynamic Quantum Yield Φ [5]	Fraction of Non-Statically Quenched Dye 1-S [5]	Natural Lifetime τ° [5]	1-S (4) = QY/F, fraction of non-statically quenched molecules [5]	F (3) = Sat/t° [5]	S [5]	t° (2), intrinsic lifetime of the fluorescence dye [5]	1-S (4) = QY/F, fraction of non-statically quenched molecules [6]	F (3) = Sat/t° [6]	S [6]	t° (2), intrinsic lifetime of the fluorescence dye [6]	also measured
O=C(CCCC[C@@H]1SC[C@@H]2NC(=O)N[C@@H]21)NCCNC(=O)c1ccc(-c2c3ccc(=O)cc-3oc3cc(O)ccc23)c(C(=O)O)c1 [BFl, Biotin-4-fluorescein]	3.69 ± 0.01	0.11 and 0.11 ± 0.01	-0.7885	5.2 ± 0.2	0.65 (2×) and 0.65 ± 0.06	0.81 ± 0.04	0.35	0.90 ± 0.02	0.49 ± 0.03	4.7 ± 0.1	0.49 and 0.49 ± 0.03	0.90 ± 0.02	0.51	4.7 ± 0.1	0.14 and 0.14 ± 0.02	0.80 ± 0.02	0.86	4.6 ± 0.1	release (displacement) of the bound probe ([1]; SAV-BFl complex, AB1, 30°C, challenging B7 1400 nM): 5%; Σαiτi (integrated lifetime) ([2]; SAV complex): 3.70 ± 0.05 ns; α1 ([2]; SAV complex): 0.61 ± 0.03; α2 ([2]; SAV complex): 0.39 ± 0.03; τ1 ([2]; SAV complex): 4.10 ± 0.02 ns; τ2 ([2]; SAV complex): 3.1 ± 0.02 ns; Lifetime τ [2, 7]: 4.1 ns and 4.1 ± 0.1 ns; Lifetime τ [2, 8]: 3.0 ns and 3.0 ± 0.1 ns; 488, correction, absR/abs ([3]; complex with SAV): 1.708; QY multiplied by the 488 correction absR/abs ([3]; complex with SAV): 0.1879; Natural Lifetime τ° [6, 7]: 4.5 ± 0.1; Fraction of Non-Statically Quenched Dye 1-S [6, 8]: 0.18 ± 0.02; Natural Lifetime τ° [6, 8]: 8.1 ± 0.1
NC(CCCCNC(=O)CCCC[C@@H]1SC[C@@H]2NC(=O)N[C@@H]21)C(=O)NCCCCCNC(=O)c1ccc(-c2c3cc(F)c(=O)cc-3oc3cc(O)c(F)cc23)c(C(=O)O)c1 (stereo partly shown) [BcO, Oregon green 488 Biocytin]	3.98 ± 0.01	0.21 ± 0.01 and 0.21	-0.7692	4.4 ± 0.1	1 and 1.00 ± 0.02	0.85 ± 0.02	0	0.88 ± 0.02	0.70 ± 0.03	4.9 ± 0.1	0.7 and 0.70 ± 0.03	0.88 ± 0.02	0.3	4.9 ± 0.1	0.25 and 0.25 ± 0.02	0.83 ± 0.02	0.75	4.8 ± 0.1	half-time of displacement ([1]; 20°C, challenging B7 740 nM): 56.6 s; half-time of displacement ([1]; 20°C, challenging B7 1240 nM): 33.9 s; half-time of displacement ([1]; 20°C, challenging B7 1740 nM): 24.2 s; release amplitude of the displacement reaction ([1]; SAV-BcO complex challenged with unlabeled B7, 20°C): ~ 79% and 79 ± 1%; Lifetime τ ([2]; SAV complex (AB1), 20°C, pH 8): 3.98 ± 0.01 ns; Quantum Yield QY ([3]; SAV complex (AB1)): 0.21 ± 0.01; Dynamic Quantum Yield Φ ([6]; SAV complex (AB1)): 0.83 ± 0.02; Fraction of Non-Statically Quenched Dye 1-S ([6]; SAV complex (AB1)): 0.25 ± 0.02; Natural Lifetime τ° ([6]; SAV complex (AB1)): 4.8 ± 0.1
